Results from patent publication US20260364184A1, “COMPOUND BASED ON OXOISOINDOLINYL-SUBSTITUTED TETRAHYDROPYRIMIDINE-DIONE AND USE THEREOF” (GLUETACS THERAPEUTICS (SHANGHAI) CO., LTD., priority 2023, published 2026).
Where two headings read alike, the source gives them in different places.

Experiments:
Format in all cases: cell-based
[1] = tested on: Human Multiple myeloma cell line (MM.1S); assay: Inhibition of MM.1S cell proliferation (CellTiter luminescent viability); conditions: Homo sapiens, MM1.S, 96 hours; for inhibition at 0.01 µM: 10 nM, read-out: Inhibition Rate at 10 nM (%); for inhibition at 0.5 µM: 500 nM, read-out: Inhibition Rate at 500 nM (%)
Experimental: (§1) The tumor cells used herein were cultured in a cell culture medium listed in table 3 at 37 °C in an incubator with 5% CO2. Prior to experimentation, all cell lines used were correctly identified by STR profiling, and tested negative for mycoplasma contamination using a mycoplasma detection kit through routine screenings.
(§2) The IC50 values of the compounds of the present disclosure (including the compounds in Table 1, Table 2, and Examples 1-468) were determined using the CellTiter-Meiluncell Luminescent Cell Viability Assay Kit from Dalian Meilun Biotech Co., Ltd. The detailed procedure is as follows: Tumor cells were seeded in 96-well cell culture plates at the densities specified in Table 4. On the following day, the test compounds of the present disclosure were subjected to serial dilution. The dilution can be performed according to one of the following two methods: • (1) The first dilution method: The test compounds of the present disclosure (including the compounds in Table 1, Table 2, and Examples 1-468) were subjected to 5-fold serial dilutions starting from a highest concentration of 2000 μM, resulting in a total of 9 concentrations from high to low (2000, 400, 80, 16, 3.2, 0.64, 0.128, 0.0256, 0.00512 μM). Subsequently, 0.5 μL of the test compound dilution was transferred into the 96-well plate containing the cells, with each well containing 100 μL of cell culture medium. […] Into the 96-well plate, the diluted test compounds and corresponding detection reagents were added, resulting in final test compound concentrations of 500 nM and 10 nM, respectively. The experimental procedure is described below using the diluted 2 μM test compound as an example.
(§3) 0.5 μL of the aforementioned diluted compound of the present disclosure (including the compounds in Table 1, Table 2, and Examples 1-468) was added to the seeded cells in 100 μL of medium, yielding a final test compound concentration of 10 nM. After the cells were treated with the compounds of the present disclosure for a specified period, the cell viability assay reagent was added to the culture medium according to the kit's instructions to determine cell viability. […] All controls were treated using the same procedure as the compounds of the present disclosure. The growth inhibition curves for the compounds of the present disclosure were plotted using Prism GraphPad software, and the IC50 values were calculated therefrom.

[2] = tested on: Human myeloid monocytic leukemia cell line (MV-4-11); assay: Inhibition of MV-4-11 cell proliferation (CellTiter luminescent viability); conditions: Homo sapiens, MV4-11, 96 hours; for inhibition at 0.01 µM: MV-4-11, 10 nM, read-out: Inhibition Rate at 10 nM (%); for inhibition at 0.5 µM: MV-4-11, 500 nM, read-out: Inhibition Rate at 500 nM (%)
Experimental: as §1, §2, §3

[3] = tested on: Human acute lymphocytic leukemia T lymphocytes cell line (CCRF-CEM); assay: Inhibition of CCRF-CEM cell proliferation (CellTiter luminescent viability); conditions: Homo sapiens, 96 h; for inhibition at 0.01 µM: 10 nM, read-out: Inhibition Rate at 10 nM (%); for inhibition at 0.5 µM: 500 nM, read-out: Inhibition Rate at 500 nM (%)
Experimental: as §1, §2, §3

[4] = tested on: Human Acute T Lymphoblastic Leukemia Cells (Molt-4); assay: Inhibition of Molt-4 cell proliferation (CellTiter luminescent viability); conditions: Homo sapiens; for inhibition at 0.01 µM: read-out: Inhibition Rate at 10 nM (%); for inhibition at 0.5 µM: read-out: Inhibition Rate at 500 nM (%)
Experimental: as §1, §2, §3

[5] = Table IL1, BCR-ABL inhibitor-based
[6] = Table IL2, BCR-ABL inhibitor-based
[7] = Table IL3, BCR-ABL inhibitor-based
[8] = MOLT-4, Molt-4, 10 nM, Table IN3
[9] = MOLT-4, Molt-4, 500 nM, Table IN3
[10] = MOLT-4, 96 h, Table IA2, IRAK4 inhibitor-based, Molt-4, 10 nM, 96 hours
[11] = MOLT-4, 96 h, Table IA2, IRAK4 inhibitor-based, Molt-4, 500 nM, 96 hours
[12] = Table IA5, IRAK4 inhibitor-based

`Cc1nc(Nc2ncc(C(=O)Nc3c(C)cccc3Cl)s2)cc(N2CCN(CCO)CC2)n1` [Dasatinib, reference compound] gave an inhibition at 0.01 µM [1, 5] of 0 to 5%, an inhibition at 0.5 µM [1, 5] of 15 to 20% and an inhibition at 0.01 µM [2, 6] of 10 to 15%. It also gave an inhibition at 0.5 µM [2, 6] of 40 to 50%, an inhibition at 0.01 µM [3, 7] of 10 to 15% and an inhibition at 0.5 µM [3, 7] of 15 to 20%.
`N#Cc1ccc(O[C@H]2CC[C@H](NC(=O)c3ccc(N4CCC(CN5CCN(c6cc(F)c7c(c6)C(=O)N(N6CCC(=O)NC6=O)C7=O)CC5)CC4)nn3)CC2)cc1Cl` [GT-05233, N-((1r,4r)-4-(3-chloro-4-cyanophenoxy)cyclohexyl)-6-(4-((4-(2-(2,4-dioxotetrahydropyrimidin-1(2H)-yl)-7-fluoro-1,3-dioxoisoindolin-5-yl)piperazin-1-yl)methyl)piperidin-1-yl)pyridazine-3-carboxamide] was tested, and the inhibition at 0.01 µM ([3]; Table IF2, AR inhibitor-based) was 15 to 20% and the inhibition at 0.5 µM ([3]; Table IF2, AR inhibitor-based) was 20 to 30%.
Compound `O=C1CCN(N2C(=O)c3ccc(CN4CCC(N5CCN(c6ncc(C(=O)Nc7ccc(OC(F)(F)Cl)cc7)cc6-c6cc[nH]n6)CC5)CC4)cc3C2=O)C(=O)N1` [GT-08225, N-(4-(chlorodifluoromethoxy)phenyl)-6-(4-(1-((2-(2,4-dioxotetrahydropyrimidin-1(2H)-yl)-1,3-dioxoisoindolin-5-yl)methyl)piperidin-4-yl)piperazin-1-yl)-5-(1H-pyrazol-3-yl)nicotinamide] has an inhibition at 0.01 µM [3, 7] of 10 to 15% and an inhibition at 0.5 µM [3, 7] of 30 to 40%.
With `O=C1CCN(N2Cc3cc(CN4CCN(C5CCN(c6ncc(C(=O)Nc7ccc(OC(F)(F)Cl)cc7)cc6-c6cc[nH]n6)CC5)CC4)ccc3C2=O)C(=O)N1` [GT-08226, N-(4-(chlorodifluoromethoxy)phenyl)-6-(4-(4-((2-(2,4-dioxotetrahydropyrimidin-1(2H)-yl)-1-oxoisoindolin-5-yl)methyl)piperazin-1-yl)piperidin-1-yl)-5-(1H-pyrazol-3-yl)nicotinamide] the inhibition at 0.01 µM [3, 7] was 5 to 10% and the inhibition at 0.5 µM [3, 7] was 30 to 40%.
`C[C@@H]1CNC(=O)c2cc3ccc(C(=O)Nc4cnn(Cc5ccc(N6CCC(N7CCN(CC8CCN(c9ccc%10c(c9)C(=O)N(N9CCC(=O)NC9=O)C%10=O)CC8)CC7)CC6)cc5)c4)nc3n21` [GT-08343, (R)—N-(1-(4-(4-(4-((1-(2-(2,4-dioxotetrahydropyrimidin-1(2H)-yl)-1,3-dioxoisoindolin-5-yl)piperidin-4-yl)methyl)piperazin-1-yl)piperidin-1-yl)benzyl)-1H-pyrazol-4-yl)-9-methyl-6-oxo-6,7,8,9-tetrahydropyrido[3′,2′: 4,5]pyrrolo[1,2-a]pyrazine-2-carboxamide] was tested, and the inhibition at 0.01 µM ([4]; MOLT-4, Molt-4, 10 nM, Table IN2) was 20 to 30%, the inhibition at 0.01 µM [4, 8] was 30 to 40% and the inhibition at 0.5 µM ([4]; MOLT-4, Molt-4, 500 nM, Table IN2) was 30 to 50%. For the same compound, the inhibition at 0.5 µM [4, 9] was 60 to 70%.
`C[C@@H]1CNC(=O)c2cc3ccc(C(=O)Nc4cnn(Cc5ccc(N6CCC(N7CCN(CC8CCN(c9cccc%10c9C(=O)N(N9CCC(=O)NC9=O)C%10=O)CC8)CC7)CC6)cc5)c4)nc3n21` [GT-08344, (R)—N-(1-(4-(4-(4-((1-(2-(2,4-dioxotetrahydropyrimidin-1(2H)-yl)-1,3-dioxoisoindolin-4-yl)piperidin-4-yl)methyl)piperazin-1-yl)piperidin-1-yl)benzyl)-1H-pyrazol-4-yl)-9-methyl-6-oxo-6,7,8,9-tetrahydropyrido[3′,2′: 4,5]pyrrolo[1,2-a]pyrazine-2-carboxamide] was tested, and the inhibition at 0.01 µM [4, 8] was 5 to 10% and the inhibition at 0.5 µM [4, 9] was 80 to 100%.
`O=C1CCN(N2C(=O)c3ccc(CN4CCN(c5ccc(-c6ccc7c8cnccc8n(CC(F)(F)F)c7c6)cn5)CC4)cc3C2=O)C(=O)N1` [GT-08544, 2-(2,4-dioxotetrahydropyrimidin-1(2H)-yl)-5-((4-(5-(5-(2,2,2-trifluoroethyl)-5H-pyrido[4,3-b]indol-7-yl)pyridin-2-yl)piperazin-1-yl)methyl)isoindoline-1,3-dione] showed an inhibition at 0.01 µM ([1]; Table IJ1, Tau inhibitor-based) of 30 to 40% and an inhibition at 0.5 µM ([1]; Table IJ1, Tau inhibitor-based) of 40 to 50%.
`Cc1cc(-c2ccc3c4cnccc4n(C)c3c2)cnc1N1CCN(CC2CCN(c3ccc4c(c3)C(=O)N(N3CCC(=O)NC3=O)C4=O)CC2)CC1` [GT-08555, 2-(2,4-dioxotetrahydropyrimidin-1(2H)-yl)-5-(4-((4-(3-methyl-5-(5-methyl-5H-pyrido[4,3-b]indol-7-yl)pyridin-2-yl)piperazin-1-yl)methyl)piperidin-1-yl)isoindoline-1,3-dione] gave an inhibition at 0.01 µM ([1]; Table IJ1, Tau inhibitor-based) of 30 to 40%, an inhibition at 0.5 µM ([1]; Table IJ1, Tau inhibitor-based) of 60 to 70% and an inhibition at 0.01 µM ([2]; Table IJ2, Tau inhibitor-based) of 30 to 40%. For the same compound, the inhibition at 0.5 µM ([2]; Table IJ2, Tau inhibitor-based) was 70 to 80%.
For `COc1cc2nn([C@H]3CC[C@H](CN4C[C@H]5C[C@@H]4CN5c4ccc5c(c4)C(=O)N(N4CCC(=O)NC4=O)C5=O)CC3)cc2cc1NC(=O)c1cccc(C(F)(F)F)c1` [GT-08663, N-(2-((1R,4r)-4-(((1R,4R)-5-(2-(2,4-dioxotetrahydropyrimidin-1(2H)-yl)-1,3-dioxoisoindolin-5-yl)-2,5-diazabicyclo[2.2.1]heptan-2-yl)methyl)cyclohexyl)-6-methoxy-2H-indazol-5-yl)-3-(trifluoromethyl)benzamide], the inhibition at 0.01 µM [4, 10] was 10 to 15% and the inhibition at 0.5 µM [4, 11] was 15 to 20%.
For `COc1cc2nn([C@H]3CC[C@H](CN4CC5CCC(C4)N5c4ccc5c(c4)C(=O)N(N4CCC(=O)NC4=O)C5=O)CC3)cc2cc1NC(=O)c1cccc(C(F)(F)F)c1` [GT-08665, N-(2-((1r,4r)-4-((8-(2-(2,4-dioxotetrahydropyrimidin-1(2H)-yl)-1,3-dioxoisoindolin-5-yl)-3,8-diazabicyclo[3.2.1]octan-3-yl)methyl)cyclohexyl)-6-methoxy-2H-indazol-5-yl)-3-(trifluoromethyl)benzamide], the inhibition at 0.01 µM [4, 10] was 15 to 20% and the inhibition at 0.5 µM [4, 11] was 15 to 20%.
`Cn1c(=O)n(C2CCC(=O)NC2=O)c2cccc(C#CCOC3CCN(C[C@H]4CC[C@H](n5cc(NC(=O)c6cnn7ccc(N8C[C@H]9C[C@@H]8CO9)nc67)c(C(F)F)n5)CC4)CC3)c21` (stereo partly shown) [KT-474, reference compound] was tested, and the inhibition at 0.01 µM [1, 12] was 5 to 10%, the inhibition at 0.5 µM [1, 12] was 15 to 20% and the inhibition at 0.01 µM [4, 10] was 7 to 10%. The inhibition at 0.5 µM [4, 11] was 7 to 10%.
In the case of `Cc1cc(-c2nc(C(=O)Nc3cc4oc(N5CCOCC5)nc4nc3N3CC[C@@H](O)C3)co2)ccn1` [emavusertib, Emavusertib, reference compound], the inhibition at 0.01 µM [4, 10] is reported as 3 to 7% and the inhibition at 0.5 µM [4, 11] is reported as 0 to 3%.
